Measured values reported in ChEMBL document CHEMBL3779868, “Tetrahydroprotoberberine alkaloids with dopamine and σ receptor affinity” (Bioorg Med Chem, 2016).

How the values were obtained:
D(1A) dopamine receptor = D(1A) dopamine receptor (Homo sapiens, UniProt P21728); assay: Displacement of [3H][…] from human dopamine D1 receptor by PDSP assay
D(2) dopamine receptor [1] = target: T1, D(2) dopamine receptor (Homo sapiens, UniProt P14416); assay: Displacement of [3H]N-methylspiperone from human dopamine D2 receptor by PDSP assay
T1 sequence (P14416 whole entry): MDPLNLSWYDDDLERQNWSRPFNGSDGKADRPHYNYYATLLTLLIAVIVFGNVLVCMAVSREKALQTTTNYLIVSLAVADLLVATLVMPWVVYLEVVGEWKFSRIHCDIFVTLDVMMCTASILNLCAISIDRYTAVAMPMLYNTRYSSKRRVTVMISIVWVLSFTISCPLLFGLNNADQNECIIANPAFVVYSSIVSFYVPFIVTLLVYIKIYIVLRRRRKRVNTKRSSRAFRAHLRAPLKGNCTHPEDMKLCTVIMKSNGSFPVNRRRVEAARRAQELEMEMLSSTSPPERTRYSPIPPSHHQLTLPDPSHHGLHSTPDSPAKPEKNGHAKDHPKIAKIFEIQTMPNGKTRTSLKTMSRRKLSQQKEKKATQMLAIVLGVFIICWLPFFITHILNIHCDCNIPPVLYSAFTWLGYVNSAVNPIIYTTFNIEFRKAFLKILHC

D(3) dopamine receptor [2] = target: T2, D(3) dopamine receptor (Homo sapiens, UniProt P35462); assay: Displacement of [3H]N-methylspiperone from human dopamine D3 receptor by PDSP assay
T2 sequence (P35462 whole entry): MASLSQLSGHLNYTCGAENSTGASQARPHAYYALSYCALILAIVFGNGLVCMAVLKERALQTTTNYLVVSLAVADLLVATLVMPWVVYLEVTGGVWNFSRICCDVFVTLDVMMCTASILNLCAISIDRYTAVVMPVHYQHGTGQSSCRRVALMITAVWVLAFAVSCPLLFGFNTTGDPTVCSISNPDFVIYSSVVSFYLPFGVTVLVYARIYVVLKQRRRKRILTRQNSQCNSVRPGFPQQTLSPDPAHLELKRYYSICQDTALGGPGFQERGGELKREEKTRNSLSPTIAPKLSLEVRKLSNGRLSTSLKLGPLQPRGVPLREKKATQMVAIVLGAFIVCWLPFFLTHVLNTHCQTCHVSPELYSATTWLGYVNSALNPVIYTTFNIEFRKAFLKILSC

[3] = target: Sigma non-opioid intracellular receptor 1 (Homo sapiens, UniProt Q99720); assay: Displacement of [3H](+)-pentazocine from human sigma1 receptor by PDSP assay
Sigma non-opioid intracellular receptor 1, sequence (Q99720 whole entry): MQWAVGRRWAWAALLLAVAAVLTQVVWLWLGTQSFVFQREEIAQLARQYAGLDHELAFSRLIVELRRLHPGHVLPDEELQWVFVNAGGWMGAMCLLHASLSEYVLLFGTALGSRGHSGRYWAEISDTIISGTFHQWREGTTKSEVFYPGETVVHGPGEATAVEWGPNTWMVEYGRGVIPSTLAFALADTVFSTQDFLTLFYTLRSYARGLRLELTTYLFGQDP

[4] = Displacement of [3H]DTG from human sigma2 receptor by PDSP assay
Homo sapiens [5] = species: Homo sapiens; assay: Selectivity ratio of Ki for human dopamine D2 receptor to human dopamine D1 receptor
Homo sapiens [6] = species: Homo sapiens; assay: Selectivity ratio of Ki for human dopamine D3 receptor to human dopamine D1 receptor
Homo sapiens [7] = species: Homo sapiens; assay: Selectivity ratio of Ki for human dopamine D2 receptor to human dopamine D3 receptor
Homo sapiens [8] = species: Homo sapiens; assay: Selectivity ratio of Ki for human sigma1 receptor to human sigma2 receptor
D(2) dopamine receptor [9] = target: T1, D(2) dopamine receptor; assay: Displacement of [3H]N-methylspiperone from human dopamine D2 receptor at 50 uM by PDSP assay
[10] = Binding affinity to sigma2 receptor (unknown origin) by PDSP assay; parameters: species or system Homo sapiens
D(3) dopamine receptor [11] = target: T2, D(3) dopamine receptor; assay: Binding affinity to dopamine D3 receptor (unknown origin) by PDSP assay
MDA-MB-231 = assay: Cytotoxicity against human MDA-MB-231 cells assessed as cell viability after 24 hrs by Alamar blue assay; assay type: functional, cell-based; settings: MDA-MB-231, 24 h

D(1A) dopamine receptor, sequence (P21728 whole entry): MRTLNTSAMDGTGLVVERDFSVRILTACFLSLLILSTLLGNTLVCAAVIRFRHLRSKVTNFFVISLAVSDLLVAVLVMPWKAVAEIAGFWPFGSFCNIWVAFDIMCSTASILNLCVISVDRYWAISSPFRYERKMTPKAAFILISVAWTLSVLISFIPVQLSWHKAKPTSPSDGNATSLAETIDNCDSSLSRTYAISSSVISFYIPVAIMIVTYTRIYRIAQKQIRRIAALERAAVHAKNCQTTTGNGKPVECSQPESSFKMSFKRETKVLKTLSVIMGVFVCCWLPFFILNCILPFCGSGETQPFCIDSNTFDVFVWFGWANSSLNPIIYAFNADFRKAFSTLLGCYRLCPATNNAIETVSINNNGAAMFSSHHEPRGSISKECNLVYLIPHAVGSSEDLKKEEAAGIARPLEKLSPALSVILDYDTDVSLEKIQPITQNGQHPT

Row | Structure (SMILES) | Ki (D(1A) dopamine receptor) | Ki (D(2) dopamine receptor [1]; read-out: Ki) | Ki (D(3) dopamine receptor [2]) | Ki [3] | Ki [4] | Ratio Ki (Homo sapiens [5]) | Ratio Ki (Homo sapiens [6]) | Ratio Ki (Homo sapiens [7]) | Ratio Ki (Homo sapiens [8]) | Ki (D(2) dopamine receptor [1]) | inhibition (D(2) dopamine receptor [9]) | Ki [10] | Ki (D(3) dopamine receptor [11]) | IC50 (MDA-MB-231)
1 | CCCCCOc1ccc2c(c1OC)CN1CCc3cc(OC)c(O)cc3C1C2 (stereo unspecified) | 19 nM | 283 nM | 101 nM | 119 nM | 97 nM | 14.9 | 5.3 | 2.8 | 1.22 |  |  |  |  | 
2 | COc1cc2c(cc1O)C1Cc3ccc(OCC4CC4)c(OC)c3CN1CC2 (stereo unspecified) | 12 nM |  |  | 12 nM | 2.4 nM |  |  |  |  |  |  |  |  | 
3 | CCOc1ccc2c(c1OC)CN1CCc3cc(OC)c(O)cc3C1C2 (stereo unspecified) | 12.4 nM | 159 nM | 44 nM | 124 nM | 1.3 nM | 12.8 | 3.5 | 3.6 | 95 |  |  |  |  | 
4 | COc1cc(CCN(C)Cc2cccc(O)c2OC)ccc1O | 3110 nM | > 10000 nM | 2680 nM | 122 nM | 227 nM |  |  |  |  |  |  |  |  | 
5 | COc1cc2c(cc1O)C1Cc3ccc(OCCCO)c(OC)c3CN1CC2 (stereo unspecified) | 6.7 nM | 211 nM | 110 nM | 53 nM | 3.8 nM | 31.5 | 16.4 | 1.9 | 13.9 |  |  |  |  | 
6 | CCCCOc1ccc2c(c1OC)CN1CCc3cc(OC)c(O)cc3C1C2 (stereo unspecified) |  | 121 nM | 65 nM | 13 nM | 49 nM |  |  |  |  |  |  |  |  | 
7 | COc1cc2c(cc1O)C1Cc3ccc(O)c(OC)c3CN1CC2 (racemic) | 5.6 nM | 116 nM | 101 nM | 269 nM | 9 nM | 20.6 | 18 | 1.1 | 30 |  |  |  |  | 
8 | CCCCCCOc1ccc2c(c1OC)CN1CCc3cc(OC)c(O)cc3C1C2 (stereo unspecified) | 40 nM |  | 220 nM | 37 nM | 107 nM |  | 5.5 |  | 0.35 | Not Active | < 50% |  |  | 
9 | COc1cc2c(cc1O)[C@@H]1Cc3ccc(O)c(OC)c3CN1CC2 [STEPHOLIDINE] |  |  |  |  |  |  |  |  |  |  |  | 54 nM | 30 nM | 
10 | CCCOc1ccc2c(c1OC)CN1CCc3cc(OC)c(O)cc3C1C2 (stereo unspecified) | 7.8 nM | 99 nM | 53 nM | 57 nM | 6.7 nM |  |  |  |  |  |  |  |  | 
11 | COc1cc2c(cc1O)C1Cc3ccc(OC)c(OC)c3CN1CC2 (stereo unspecified) |  |  | 37 nM |  | 1 nM |  |  |  |  |  |  |  |  | 178000 nM
12 | CCN(CCc1ccc(O)c(OC)c1)Cc1cccc(O)c1OC | > 10000 nM | > 10000 nM | 1810 nM | 350 nM | 788 nM |  |  |  |  |  |  |  |  | 
13 | COc1cc2c(cc1O)C(C)N(Cc1cccc(O)c1OC)CC2 (stereo unspecified) | 833 nM | 1100 nM | 1370 nM | 130 nM | 301 nM |  |  |  |  |  |  |  |  | 
